Like-named read-outs stand apart in the source and are kept apart here. Where a SMILES comes first, the peptide text is derived from it. Bridges are numbered along the chain shown (N, C = ends). [ ]: non-standard residue; d: D form. R8 = C=CCCCCCC[C@@](C)(N)C(=O)O; S5 = C=CCCC[C@](C)(N)C(=O)O
Assay: Plasma concentration after tail-vein injection (toxicokinetics);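 as to SAH-EJ1 concentration in plasma, average: blood sampled on day 1 after the tail-vein injection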
Assay type: in vivo, CD-1 mice
Details: for level at 0.5 h / level at 1 h: average ± SD, read-out: SAH-EJ1 concentration in plasma, average
Experimental: Toxicology was performed by IITRI. The study was conducted in compliance with the US Food and Drug Administration (FDA) good laboratory practice (GLP) Regulations (Code of Federal Regulations Title 21 Part 58) to evaluate the toxicokinetics, local tolerability, immunogenicity, and potential toxicity of SAH5-EJ1 following three times per week intravenous (IV) dosing for 28 days in mice. Male and female CD-1 IGS [Crl:CD1(ICR)] mice (135 per sex) were received from Wilmington, MA-based Charles River Laboratories, Inc.’s Kingston facility (Stone Ridge, NY).

SMILES: CC[C@H](C)[C@H](NC(=O)[C@H](Cc1c[nH]cn1)NC(=O)[C@H](CCCNC(=N)N)NC(=O)[C@H](CCCNC(=N)N)NC(=O)[C@H](CCCNC(=N)N)NC(=O)[C@H](CCSC)NC(=O)[C@H](Cc1ccccc1)NC(=O)[C@H](C)NC(=O)[C@H](CCCNC(=N)N)NC(=O)[C@H](C)NC(=O)[C@H](CCC(N)=O)NC(=O)[C@H](CCCNC(=N)N)NC(=O)[C@H](C)NC(=O)[C@H](C)NC(=O)[C@H](C)NC(=O)[C@H](CCCNC(=N)N)NC(=O)[C@H](C)NC(=O)[C@@H](N)Cc1ccc(O)cc1)C(=O)N[C@H](C(=O)N[C@@H](CCCNC(=N)N)C(=O)N[C@@H](CCCCN)C(=O)N[C@@H](CCCNC(=N)N)C(=O)N[C@]1(C)CCCCCCC=CCCC[C@@](C)(C(=O)N[C@@H](CCCNC(=N)N)C(=O)N[C@@H](CCC(=O)O)C(N)=O)NC(=O)[C@H](CCC(N)=O)NC(=O)[C@H](CC(C)C)NC(=O)[C@H](CC(C)C)NC(=O)[C@H](CCCNC(=N)N)NC(=O)[C@H](CCCNC(=N)N)NC(=O)[C@H](CC(C)C)NC1=O)C(C)C [SAH5-EJ1] (H-YARAAARQARAFMRRRHIVRKR[R8]LRRLLQ[S5]RE-NH2; staple 23-30)
- level at 0.5 h (CD-1, mouse, plasma, female, 10 mg/kg IV, day 1, 0.5 h): 562 ± 47 ng/mL
- level at 1 h (CD-1, mouse, plasma, female, 10 mg/kg IV, day 1, 1 h): 542 ± 33 ng/mL
- level at 0.5 h (CD-1, mouse, plasma, female, 15 mg/kg IV, day 1, 0.5 h): 554 ± 64 ng/mL
- level at 1 h (CD-1, mouse, plasma, female, 15 mg/kg IV, day 1, 1 h): 569 ± 27 ng/mL
- level at 0.5 h (CD-1, mouse, plasma, male, 10 mg/kg IV, day 1, 0.5 h): 638 ± 110 ng/mL
- level at 1 h (CD-1, mouse, plasma, male, 10 mg/kg IV, day 1, 1 h): 665 ± 150 ng/mL
- level at 0.5 h (CD-1 IGS [Crl:CD1(ICR)], mouse, plasma, female, 5 mg/kg IV, day 1, 0.5 h): 569 ± 19 ng/mL
- level at 1 h (CD-1 IGS [Crl:CD1(ICR)], mouse, plasma, female, 5 mg/kg IV, day 1, 1 h): 529 ± 30 ng/mL
- level at 0.5 h (CD-1 IGS [Crl:CD1(ICR)], mouse, plasma, male, 5 mg/kg IV, day 1, 0.5 h): 1020 ± 350 ng/mL
- level at 1 h (CD-1 IGS [Crl:CD1(ICR)], mouse, plasma, male, 5 mg/kg IV, day 1, 1 h): 576 ± 39 ng/mL
- level at 0.5 h (CD-1 IGS [Crl:CD1(ICR)], mouse, plasma, male, 15 mg/kg IV, day 1, 0.5 h): 901 ± 160 ng/mL
- level at 1 h (CD-1 IGS [Crl:CD1(ICR)], mouse, plasma, male, 15 mg/kg IV, day 1, 1 h): 657 ± 37 ng/mL
- level at 2 h (CD-1 IGS [Crl:CD1(ICR)], plasma, male, 15 mg/kg IV, day 1, 2 h, mouse 2 of 3, read-out: SAH-EJ1 concentration in plasma): 551 ng/mL
- time by which peptide was not detectable in plasma (female mice, highest body weight dosage): ≤ 2 h
- SAH-EJ1 concentration in plasma (female, 5 mg/kg IV, day 1, 1 h, mouse 1 of 3): BQL (BQL represents below quantifiable limits (0.5 µg/mL))
- SAH-EJ1 concentration in plasma (female, 5 mg/kg IV, day 1, 2 h, mouse 1 of 3): BQL (BQL represents below quantifiable limits (0.5 µg/mL))
- SAH-EJ1 concentration in plasma (female, 5 mg/kg IV, day 1, 2 h, mouse 2 of 3): BQL (BQL represents below quantifiable limits (0.5 µg/mL))
- SAH-EJ1 concentration in plasma (female, 5 mg/kg IV, day 1, 2 h, mouse 3 of 3): BQL (BQL represents below quantifiable limits (0.5 µg/mL))
- SAH-EJ1 concentration in plasma (female, 5 mg/kg IV, day 1, 4 h, mouse 1 of 3): BQL (BQL represents below quantifiable limits (0.5 µg/mL))
- SAH-EJ1 concentration in plasma (female, 5 mg/kg IV, day 1, 4 h, mouse 2 of 3): BQL (BQL represents below quantifiable limits (0.5 µg/mL))
- SAH-EJ1 concentration in plasma (female, 5 mg/kg IV, day 1, 4 h, mouse 3 of 3): BQL (BQL represents below quantifiable limits (0.5 µg/mL))
- SAH-EJ1 concentration in plasma (female, 5 mg/kg IV, day 1, 8 h, mouse 1 of 3): BQL (BQL represents below quantifiable limits (0.5 µg/mL))
- SAH-EJ1 concentration in plasma (female, 5 mg/kg IV, day 1, 8 h, mouse 2 of 3): BQL (BQL represents below quantifiable limits (0.5 µg/mL))
- SAH-EJ1 concentration in plasma (female, 5 mg/kg IV, day 1, 8 h, mouse 3 of 3): BQL (BQL represents below quantifiable limits (0.5 µg/mL))
- SAH-EJ1 concentration in plasma (female, 5 mg/kg IV, day 1, 24 h, mouse 1 of 3): BQL (BQL represents below quantifiable limits (0.5 µg/mL))
- SAH-EJ1 concentration in plasma (female, 5 mg/kg IV, day 1, 24 h, mouse 2 of 3): BQL (BQL represents below quantifiable limits (0.5 µg/mL))
- SAH-EJ1 concentration in plasma (female, 5 mg/kg IV, day 1, 24 h, mouse 3 of 3): BQL (BQL represents below quantifiable limits (0.5 µg/mL))
- SAH-EJ1 concentration in plasma (female, 10 mg/kg IV, day 1, 1 h, mouse 2 of 3): BQL (BQL represents below quantifiable limits (0.5 µg/mL))
- SAH-EJ1 concentration in plasma (female, 10 mg/kg IV, day 1, 2 h, mouse 1 of 3): BQL (BQL represents below quantifiable limits (0.5 µg/mL))
- SAH-EJ1 concentration in plasma (female, 10 mg/kg IV, day 1, 2 h, mouse 2 of 3): BQL (BQL represents below quantifiable limits (0.5 µg/mL))
- SAH-EJ1 concentration in plasma (female, 10 mg/kg IV, day 1, 2 h, mouse 3 of 3): BQL (BQL represents below quantifiable limits (0.5 µg/mL))
- SAH-EJ1 concentration in plasma (female, 10 mg/kg IV, day 1, 4 h, mouse 1 of 3): BQL (BQL represents below quantifiable limits (0.5 µg/mL))
- SAH-EJ1 concentration in plasma (female, 10 mg/kg IV, day 1, 4 h, mouse 2 of 3): BQL (BQL represents below quantifiable limits (0.5 µg/mL))
- SAH-EJ1 concentration in plasma (female, 10 mg/kg IV, day 1, 4 h, mouse 3 of 3): BQL (BQL represents below quantifiable limits (0.5 µg/mL))
- SAH-EJ1 concentration in plasma (female, 10 mg/kg IV, day 1, 8 h, mouse 1 of 3): BQL (BQL represents below quantifiable limits (0.5 µg/mL))
- SAH-EJ1 concentration in plasma (female, 10 mg/kg IV, day 1, 8 h, mouse 2 of 3): BQL (BQL represents below quantifiable limits (0.5 µg/mL))
- SAH-EJ1 concentration in plasma (female, 10 mg/kg IV, day 1, 8 h, mouse 3 of 3): BQL (BQL represents below quantifiable limits (0.5 µg/mL))
- SAH-EJ1 concentration in plasma (female, 10 mg/kg IV, day 1, 24 h, mouse 1 of 3): BQL (BQL represents below quantifiable limits (0.5 µg/mL))
- SAH-EJ1 concentration in plasma (female, 10 mg/kg IV, day 1, 24 h, mouse 2 of 3): BQL (BQL represents below quantifiable limits (0.5 µg/mL))
- SAH-EJ1 concentration in plasma (female, 10 mg/kg IV, day 1, 24 h, mouse 3 of 3): BQL (BQL represents below quantifiable limits (0.5 µg/mL))
- SAH-EJ1 concentration in plasma (female, 15 mg/kg IV, day 1, 0.5 h, mouse 3 of 3): BQL (BQL represents below quantifiable limits (0.5 µg/mL))
- SAH-EJ1 concentration in plasma (female, 15 mg/kg IV, day 1, 1 h, mouse 2 of 3): BQL (BQL represents below quantifiable limits (0.5 µg/mL))
- SAH-EJ1 concentration in plasma (female, 15 mg/kg IV, day 1, 2 h, mouse 1 of 3): BQL (BQL represents below quantifiable limits (0.5 µg/mL))
- SAH-EJ1 concentration in plasma (female, 15 mg/kg IV, day 1, 2 h, mouse 2 of 3): BQL (BQL represents below quantifiable limits (0.5 µg/mL))
- SAH-EJ1 concentration in plasma (female, 15 mg/kg IV, day 1, 2 h, mouse 3 of 3): BQL (BQL represents below quantifiable limits (0.5 µg/mL))
- SAH-EJ1 concentration in plasma (female, 15 mg/kg IV, day 1, 4 h, mouse 1 of 3): BQL (BQL represents below quantifiable limits (0.5 µg/mL))

Reference: publication PMC6582486, “Stapled EGFR peptide reduces inflammatory breast cancer and inhibits additional HER-driven models of cancer” (Journal of Translational Medicine, 2019)
